Test results published in paper PMC11901561, “Free Radical Scavenging Activity and Inhibition of Enzyme-Catalyzed Oxidation by trans-aryl-Palladium Complexes” (Molecules, 2025).
Where two headings read alike, the source gives them in different places.

Columns and labels:
[1] = cited from earlier work
[2] = Antiradical efficiency (kinetic study via DPPH assay)
Experimental: The reaction between potential antioxidants and the oxidized substrate requires a steady state which will depend on several parameters, such as the reaction time. The time needed to reach the steady state, at the concentration corresponding to EC50, is more and more frequently used and can be defined as TEC50. In brief, TEC50 was determined by plotting the recorded absorbance during the period for the EC50 concentration for the considered antioxidant compound. […] The antiradical efficiency of compounds and their classification are considered according to the work of Sanchez-Moreno [69].

[3] = molecular target: T1, horseradish peroxidase (HRP) (Armoracia rusticana, UniProt P00433); test: biochemical; type: biochemical
T1 sequence (P00433 31-338 limits assumed): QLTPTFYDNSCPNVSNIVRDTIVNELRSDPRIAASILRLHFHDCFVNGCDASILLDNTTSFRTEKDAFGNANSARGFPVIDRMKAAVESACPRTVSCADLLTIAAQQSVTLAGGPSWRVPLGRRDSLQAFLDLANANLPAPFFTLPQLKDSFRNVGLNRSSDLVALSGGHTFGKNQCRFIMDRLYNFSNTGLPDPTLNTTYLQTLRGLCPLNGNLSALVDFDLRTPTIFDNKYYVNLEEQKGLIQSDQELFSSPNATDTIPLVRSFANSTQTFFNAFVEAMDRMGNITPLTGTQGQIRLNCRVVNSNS
Experimental: To investigate the effect of selected palladium (II)-based complexes on the peroxidase (HRP)-catalyzed oxidation of the chemiluminescent probe (L-012), in the presence of hydrogen peroxide (H2O2), the chemiluminescence technique was used. Briefly, plate-reader-based luminescence measurements were performed in white 96-well plates using a Fluoroskan Ascent FL microplate reader (Thermo Labsystems, Vantaa, Finland), with the temperature set at 37 °C. To 5 µL of a stock solution of HRP (1 mg/mL) in phosphate buffer (pH = 7.5) per well, we successively added 10 µL of L-012 (aqueous solution, 0.84 mmoL) and 2 µL of tested compound in 163 µL of buffer solution. The reaction was triggered by adding 20 µL hydrogen peroxide (0.19 µM) to reach the final volume of 200 µL. The light emission, produced from oxidation of L-012 by HRP/H2O2 system, in the presence or absence of the tested palladium complex, was recorded in kinetic mode for 30 min. Inhibition of the emitted light due to tested complexes was associated with higher activity. The following formula was applied to calculate the inhibiting activity of complexes towards the oxidation of L-012 catalyzed by the HRP/H2O2 system:% inhibition = (L control − L Sample) x 100/L Control
(§1) Results were expressed as mean values ± standard deviation (SD). All measurements were replicated three times. EC50 values were calculated with GraphPad Prism 6.0 (GraphPad Software, San Diego, CA, USA) under the application of the function “log (inhibitor) versus normalized response-variable slope” after converting the concentrations into their decimal logarithm. The results were analyzed using Student’s test and a two-way analysis of variance (ANOVA), and a multiple comparison of all data was performed using Tukey’s multiple comparisons test. p < 0.0001 was considered significant.

[4] = DPPH radical scavenging test (spectrophotometric, 517 nm)
Experimental: Radical scavenging capacity, as an indicator of the antioxidant capacity of compounds against 1,1-diphenyl-2-picrylhydrazyl (DPPH) free radicals and 2,2-azinobis (3-ethyl- enzothiazoline-6-sulfonic acid), ABTS•+ radical cations, was determined using a spectrophotometric assay. Antiradical capacity analysis was performed either on pure MeOH for ABTS or the mixture of MeOH/distilled water (90:10 v/v) for DPPH. For both ABTS and DPPH assays, the stock solutions of complexes were prepared in DMSO. Quercetin was used as an antioxidant standard in the DPPH and ABTS•+ scavenging tests. […] EC50 values were estimated using nonlinear regression. A lower EC50 value indicates higher antiradical activity.
The DPPH assay was performed according to the method developed by Brand-Williams et al. slightly modified. A solution of 1 mM DPPH in 90% (v/v) methanol was stirred for 40 min. The absorbance of the solution was adjusted to 0.650 ± 0.020 at 517 nm using fresh 90% (v/v) methanol. Then, 0.02 mL of quercetin taken as a standard or sample was mixed with 1.98 mL of DPPH solution and incubated for 30 min in the dark covered with aluminum foil. When reacting with an antioxidant, the DPPH• radical is converted into DPPH, and its color changes from purple to yellow. The antioxidant effect may be easily evaluated by observing the decrease in visible absorption. The absorbance decrease was monitored at 517 nm after 30 min of incubation with a Hewlett Packard 8453 spectrophotometer. The control consisted of 0.02 mL of DMSO in 1.98 mL of DPPH solution. A similar formula (Equation (1)) was applied to determine the DPPH radical scavenging activity.
as §1

[5] = ABTS radical scavenging test (spectrophotometric, 734 nm); conditions: concentration scavenging 50% of ABTS•+; MeOH, 30 min; mean ± SD
Experimental: Radical scavenging capacity, as an indicator of the antioxidant capacity of compounds against 1,1-diphenyl-2-picrylhydrazyl (DPPH) free radicals and 2,2-azinobis (3-ethyl- enzothiazoline-6-sulfonic acid), ABTS•+ radical cations, was determined using a spectrophotometric assay. Antiradical capacity analysis was performed either on pure MeOH for ABTS or the mixture of MeOH/distilled water (90:10 v/v) for DPPH. For both ABTS and DPPH assays, the stock solutions of complexes were prepared in DMSO. Quercetin was used as an antioxidant standard in the DPPH and ABTS•+ scavenging tests. EC50 is defined as the concentration of compound (µM) required to scavenge 50% of ABTS•+ or DPPH radicals. EC50 values were estimated using nonlinear regression. A lower EC50 value indicates higher antiradical activity.
The ABTS assay was based on the method described by Re et al.. For the generation of ABTS•+ radicals, sodium persulfate (2.45 mM) aqueous solution was mixed with ABTS (7 mM) and incubated overnight in the dark to obtain a dark colored solution. The stock solution of ABTS•+ was then diluted by adding pure methanol (100%) to obtain an absorbance of 0.70 (±0.02) at 734 nm at 30 °C. An aliquot of 0.02 mL of tested compound was added to 1.98 mL of ABTS•+, and the decrease in absorbance was monitored at 734 nm after 30 min [80]. During this reaction, the blue green ABTS radical cation is converted back into its colorless neutral form in the presence of the potential antioxidant molecule. A control consisted of 0.02 mL of DMSO in 1.98 mL of ABTS•+ solution. The reducing capacity was determined according to the following formula:% inhibition = (A control − A Sample) × 100/A Control (1)
as §1

[6] = design: method as in earlier work; conditions: values reported in the literature ref 60; read-out: EC50 ABTS, literature values; cited from earlier work

Question: What does the source list for `O=c1c(O)c(-c2ccc(O)c(O)c2)oc2cc(O)cc(O)c12` [Qrcn, Quercetin, reference compound]?
Answer: EC50 (g antioxidant per Kg of DPPH), literature value [1]: 84 ± 6 g/kg; AE (antiradical efficiency) ([2]; AE = 1/EC50.TEC50, DPPH): 0.1873 ×10^−3; Classification of antiradical efficiency ([2]; according to Sanchez-Moreno, from AE value): Low; TEC50 ([2]; time needed to reach the steady state at the EC50 concentration, DPPH): 61 min; Effect on chemiluminescence at lowest concentrations ([3]; 1, 5, and 10 µM, HRP-H2O2/L-012): weak effect; EC50 ([3]; HRP-H2O2/L-012 system, pH 7.5, 37 °C, 30 min, read-out: EC50 chemiluminescence assay): 7.06 ± 2.56 µM; EC50 (g Antioxidant/kg DPPH°) ([4]; EC50 expressed as weight of antioxidant per kg of DPPH radical): 87.98 ± 15 g Antioxidant/kg DPPH°; EC50 ([4]; concentration scavenging 50% of DPPH, 90% MeOH, 30 min, mean ± SD): 5.79 ± 1 µM; EC50 [5]: 5.56 ± 0.97 µM; EC50 [6]: ~15 µM
